Broadly, the inhibition is the change of the read-out against control, counted positive when it falls.

Experiment [1] addresses T1, COX-2 enzyme (human PGHS-2) isolated from insect cells (Homo sapiens, UniProt P35354).
T1 sequence (P35354 18-604): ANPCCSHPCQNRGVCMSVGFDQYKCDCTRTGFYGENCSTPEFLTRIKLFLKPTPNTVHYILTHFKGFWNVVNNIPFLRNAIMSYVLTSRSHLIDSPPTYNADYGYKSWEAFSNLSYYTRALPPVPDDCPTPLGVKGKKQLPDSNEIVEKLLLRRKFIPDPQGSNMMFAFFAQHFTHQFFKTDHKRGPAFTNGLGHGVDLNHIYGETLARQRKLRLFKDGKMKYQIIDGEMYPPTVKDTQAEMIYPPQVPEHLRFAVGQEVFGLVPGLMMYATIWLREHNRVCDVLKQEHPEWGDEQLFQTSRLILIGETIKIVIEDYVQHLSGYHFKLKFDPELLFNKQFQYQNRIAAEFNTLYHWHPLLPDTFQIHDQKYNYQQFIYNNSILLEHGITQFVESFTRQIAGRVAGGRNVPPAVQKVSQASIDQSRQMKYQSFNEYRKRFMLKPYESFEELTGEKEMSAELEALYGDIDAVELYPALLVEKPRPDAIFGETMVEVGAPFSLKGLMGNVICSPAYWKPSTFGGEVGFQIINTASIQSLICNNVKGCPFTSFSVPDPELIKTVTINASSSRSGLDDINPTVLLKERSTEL
Briefly: Cyclooxygenase enzyme inhibitory assay, COX-2 (initial rate of O2 uptake).
Protocol: (§1) The withanolides isolated from the leaves were evaluated for their cyclooxygenase (COX) enzyme inhibitory activity using prostaglandin endoperoxide synthase isozymes-1 (COX-1) and PGHS-2 (COX-2).
(§2) Cyclooxygenase enzyme inhibitory assay. COX-1 enzyme was prepared from ram seminal vesicles and COX-2 enzyme was isolated from insect cells cloned with human PGHS-2 enzyme. The inhibitory effects of test compounds on COX-1 and -2 were measured by monitoring the initial rate of 02 uptake using an oxygen electrode (Instech Laboratories, Plymouth Meeting, Pa.) attached to a biological oxygen monitor (Yellow Spring Instrument, Inc., Yellow Spring, Ohio) at 37° C. The enzymes were diluted (1:1) with Tris buffer (pH 7, 10-15 μl) and the test compounds (100 μg/ml, 10 μl) dissolved in DMSO were added to the assay mixture composed of 3 ml of 0.1 M Tris HCl, pH 7, 1 mmol phenol and 85 μg of hemoglobin. […] The instantaneous inhibition was measured by using Quick Log Data acquisition and control computer software (Strawberry Tree Inc., Sunnyvale, Calif., USA).

The nature of experiment [2]: Antioxidant activity: inhibition of Fe2+-initiated lipid peroxidation in large unilamellar vesicles. To be noted: 100 ppm (100 μg/ml), at 20 min, relative to DMSO control. Here is the method:
The ability of withanolides to inhibit lipid peroxidation in a model system was used to determine whether they could act as antioxidants. The assay was conducted by using large unilamellar vesicles and peroxidation was initiated by adding Fe^2+.
Antioxidant activity. […] The percentage of inhibition was calculated with respect to DMSO control. All compounds were tested at 100 μg/ml and the positive controls BHA, BHT and TBHQ were tested at 10 μM.

Experiment [3] addresses T2, COX-1 enzyme (prostaglandin endoperoxide synthase isozyme-1) prepared from ram seminal vesicles (Ovis aries, UniProt P05979).
T2 sequence (P05979 25-600): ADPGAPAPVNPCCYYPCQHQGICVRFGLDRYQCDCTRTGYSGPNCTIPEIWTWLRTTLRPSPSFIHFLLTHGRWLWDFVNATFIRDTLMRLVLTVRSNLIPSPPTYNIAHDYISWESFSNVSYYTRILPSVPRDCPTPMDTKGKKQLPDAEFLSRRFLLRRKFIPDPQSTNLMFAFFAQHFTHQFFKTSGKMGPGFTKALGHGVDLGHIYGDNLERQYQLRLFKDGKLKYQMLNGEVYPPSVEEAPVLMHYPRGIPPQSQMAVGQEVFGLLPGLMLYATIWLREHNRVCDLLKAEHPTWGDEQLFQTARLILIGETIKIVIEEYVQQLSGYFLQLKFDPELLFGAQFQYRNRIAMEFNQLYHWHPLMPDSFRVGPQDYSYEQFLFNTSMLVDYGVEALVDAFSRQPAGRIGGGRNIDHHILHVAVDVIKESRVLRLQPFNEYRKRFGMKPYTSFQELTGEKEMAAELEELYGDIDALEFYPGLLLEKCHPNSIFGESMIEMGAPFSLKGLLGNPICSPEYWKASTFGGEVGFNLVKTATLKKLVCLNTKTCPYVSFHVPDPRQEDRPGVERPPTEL
Briefly: Cyclooxygenase enzyme inhibitory assay, COX-1 (initial rate of O2 uptake).
Protocol: as §1, §2

As to “4,16-dihydroxy-5β,6β-epoxyphysagulin D [Compound 4]”, the COX-2 enzyme inhibition in experiment [1] (50 μg/ml) amounted to 5%. Further, in experiment [2], the “inhibition of lipid peroxidation” value stood at 40%.
The like results for “4-(1-hydroxy-2,2-dimethylcyclo-propanone)-2,3-dihydrowithaferin A [Compound 5]” were, in that order, 15% and “did not show activity”.
Take 23,24-dihydrowithaferin A [Compound 9]: the COX-1 activity result in experiment [3] (100 μg/ml) is “neither COX-1 nor COX-2 activities”. Moreover, the COX-2 enzyme inhibition entry in experiment [1] (100 μg/ml) was “neither COX-1 nor COX-2 activities”. Moreover, in experiment [2], the “inhibition of lipid peroxidation” value is given as “did not show activity”.
The compound “27-O-β-D-glucopyranosyl physagulin D [Compound 2]” gave a COX-2 enzyme inhibition in experiment [1] (50 μg/ml) of 9%.
In turn, `CC(=O)Oc1ccccc1C(=O)O` [Aspirin, reference compound] came in with a COX-1 inhibition in experiment [3] (tested at 180 μg/ml) of 61%. For the same compound, in experiment [1] (read-out: COX-2 inhibition), the inhibition at 180 µg/mL turned out to be 7%.
In turn, `CC1=C(CO[C@@H]2O[C@H](CO)[C@@H](O)[C@H](O)[C@H]2O)C(=O)OC([C@@H](C)[C@H]2CC[C@H]3[C@@H]4C[C@H]5O[C@]56[C@@H](O)[C@@H](O)CC(=O)[C@]6(C)[C@H]4CC[C@]23C)C1` (stereo partly drawn) [Compound 3, 27-O-β-D-glucopyranosyl viscosalactone B] came in with a COX-2 enzyme inhibition in experiment [1] (50 μg/ml) of 7%.
With `CC1=C(CO)C(=O)O[C@@H]([C@@H](C)[C@H]2CC[C@H]3[C@@H]4C[C@H]5O[C@]56[C@@H](O)C=CC(=O)[C@]6(C)[C@H]4CC[C@]23C)C1` [Compound 6, withaferin A], the COX-2 enzyme inhibition in experiment [1] (100 μg/ml) was 39%. The “inhibition of lipid peroxidation” value in experiment [2] is given as “did not show activity”.
Consider `CC1=C(CO)C(=O)OC(C(C)C2CCC3C4CC5OC56C(O)CCC(=O)C6(C)C4CCC23C)C1` (centres unmarked) [Compound 7, 2,3-dihydrowithaferin A], for which the COX-2 enzyme inhibition in experiment [1] (100 μg/ml) is 27%. The “inhibition of lipid peroxidation” value in experiment [2] is recorded as 5%.
For `CC1=C(CO)C(=O)O[C@@H]([C@@H](C)[C@H]2CC[C@H]3[C@@H]4C[C@H]5O[C@]56[C@@H](O)[C@@H](O)CC(=O)[C@]6(C)[C@H]4CC[C@]23C)C1` [Compound 8, viscosalactone B] the same measures were 35% and “did not show activity”.
On to `CC1=C(CO[C@@H]2O[C@H](CO)[C@@H](O)[C@H](O)[C@H]2O)C(=O)O[C@@H]([C@@H](C)[C@H]2CC[C@H]3[C@@H]4C[C@H]5O[C@]56[C@@H](O)C=CC(=O)[C@]6(C)[C@H]4CC[C@]23C)C1` [Compound 10, sitoindoside IX], for which the inhibition at 100 µg/mL in experiment [1] (read-out: COX-2 enzyme inhibition) was determined as 13%. In addition, the “inhibition of lipid peroxidation” value in experiment [2] amounted to 44%.
Regarding `CC1=C(CO)C(=O)O[C@@H]([C@@H](C)[C@H]2CC[C@H]3[C@@H]4CC=C5C[C@@H](O[C@@H]6O[C@H](CO)[C@@H](O)[C@H](O)[C@H]6O)C[C@H](O)[C@]5(C)[C@H]4CC[C@]23C)C1` [Compound 11, physagulin D], the COX-2 enzyme inhibition in experiment [1] (100 μg/ml) was determined as 14%. The “inhibition of lipid peroxidation” value in experiment [2] worked out at 55%.
For the compound `CC1=C(CO)C(=O)O[C@@H]([C@@H](C)[C@H]2CC[C@H]3[C@@H]4CC=C5C[C@@H](O[C@@H]6O[C@H](CO[C@@H]7O[C@H](CO)[C@@H](O)[C@H](O)[C@H]7O)[C@@H](O)[C@H](O)[C@H]6O)C[C@H](O)[C@]5(C)[C@H]4CC[C@]23C)C1` [Compound 12, withanolide IV], the COX-2 enzyme inhibition in experiment [1] (100 μg/ml) is 23%. Further, the “inhibition of lipid peroxidation” value in experiment [2] was “did not show activity”.
In the case of `COc1ccc2cc([C@H](C)C(=O)O)ccc2c1` [naproxen, reference compound], the values for the inhibition at 2.5 µg/mL in experiment [3] (read-out: COX-1 inhibition) and in experiment [1] (read-out: COX-2 inhibition) were 79% and 95%, respectively.
Compound “physagulin D (1→6)-β-D-glucopyranosyl-(1→4)-β-D-glucopyranoside [Compound 1]” returned a COX-2 enzyme inhibition in experiment [1] (50 μg/ml) of 15%.

The record behind these values is patent US7264832B2, “Cyclooxygenase-2 inhibitory withanolide compositions and method” (Board of Trustees of Michigan State University, priority 2002, dated 2007).
